Test results published in patent US4443619A, “Chlorocitric acids” (Hoffmann-La Roche Inc., priority 1981, dated 1984).

Columns and labels:
[1] = Food consumption of three diets in meal-fed rats (Example 15); format: in vivo, Charles River female rats; conditions: mean ± S.E.
Procedure: Charles River female rats (Charles River Breeding Laboratories, Wilmington, Mass.), weighing 170 to 200 g, were individually housed in wire-bottomed cages in a temperature-regulated (22° C.) light-controlled room (12 hr light, 6 a.m. to 6 p.m. and 12 hr dark, 6 p.m. to 6 a.m.). Animals were fasted 48 hr, then meal-fed the indicated diets from 8 to 11 a.m. Following 5 to 12 days alimentation on the meal-feeding regimen, rats were dosed with the appropriate compounds orally by intubation 1/2 hr before the 3 hr meal. Food cups were weighed immediately after the 1st, 2nd and 3rd hr of the meal. The control groups consisted of 8 to 10 rats and the experimental group considered of 5 to 6 rats.

[2] = Anorectic effect in 8 hour meal-fed Zucker rats (Example 17); format: in vivo, lean (Fa/-) and obese (fa/fa)
Procedure: Lean (Fa/-) Zucker rats and obese (fa/fa) Zucker rats of both sexes were individually housed in wire-bottomed cages in a temperature-regulated (22° C.) light-controlled room (12 hr light, 6 a.m. to 6 p.m. and 12 hr dark, 6 p.m. 6 a.m.). The animals were fed a high carbohydrate (70% glucose) diet ad libitum for 13 days, dosed with the indicated compounds by oral intubation for 9 days and allowed to recover for 3 days. The animals were then meal fed from 8 a.m. to 4 p.m. for a period of 5 days, following which they were continued on the same meal schedule for an additional 6 days. During the 6-day period, the animals were administered the indicated compounds by oral intubation at 8 a.m. and 12 p.m. Food cups were weighed immediately after the meal.

[3] = Total body fat in meal-fed rats, oral administration, 17 day study (Example 22); format: in vivo, Charles River female rats; conditions: 17 days
Procedure: Two month old Charles River female rats (Charles River Breeding Laboratories, Wilmington, Mass.) were individually housed in wire-bottomedcages in a temperature-regulated (22° C.) light-controlled room (12 hr light, 6 a.m. to 6 p.m. and 12 hr dark, 6 p.m. to 6 a.m.). […] On the 8th day, the animals were administered water or (-)-threo-chlorocitric acid at the indicated concentration by oral intubation 30 min before the 3 hr meal. Treatment was continued for 17 days. Food cups were weighed immediately after the meal. After 17 days of treatment, rats were killed by decapitation and blood was removed. […] C. Sullivan, et al, Am. J. Clinical Nutrition, 30 767 (1977). […] Total carcass and lipid data are expressed in grams and percentages of carcass weight.

Stomach Emptying = assay: Effect on stomach emptying ([14C]glucose load) in rats (Example 25); format: in vivo; conditions: 0.33 mmoles/kg oral, 60 min after [14C]glucose load, mean ± S.E.
Procedure: Rats were trained to consume a 3 hr 70% glucose meal from 8 a.m. to 11 a.m. daily. On the experimental day, compounds were administered orally by intubation 30 min before a [^14 C]glucose load was given also by intubation. […] Sixty minutes later the rats were killed by decapitation; blood and stomachs were collected on ice.
Data are expressed as follows: dpm×10^3 per ml of serum and dpm×10^3 per stomach.

[4] = Food intake in dogs, pyramiding oral doses (Examples 26 and 27); format: in vivo, beagle dogs
Procedure: Twelve beagle dogs of both sexes weighing 7.6-12.2 kg were used for this test. The test compounds were contained in gelatin capsules for oral administration to two dogs of each sex. The animals were weighed and food consumption calculated daily excluding weekends throughout the test period. Each animal received 800 grams of diet daily consisting of 400 grams of Wayne pellet dog food mixed with 400 ml distilled water. The animals received pyramiding oral doses of the test compound over the three week period. On Monday and Tuesday of the first week the animals were weighed and food consumption was recorded (control). The animals received 3 mg/kg on Wednesday and 10 mg/kg on Friday of the first week. Doses of 30, 100 and 300 mg/kg were administered on Monday, Wednesday and Friday respectively during the second week. A final dose of 1000 mg/kg was administered on Monday of the third week.
Food intake was determined by the procedure by pyramiding doses described in Example 26.

[5] = tested on: fatty acid and cholesterol syntheses; assay: Inhibition of fatty acid, lipid and cholesterol synthesis (summary statements)
[6] = 20% Corn Oil, 0.33 mmoles (75 mg)/kg oral
[7] = 20% Corn Oil, 0.66 mmoles (150 mg)/kg oral
[8] = 70% Glucose, 0.33 mmoles (75 mg)/kg oral
[9] = 70% Glucose, 0.66 mmoles (150 mg)/kg oral
[10] = Chow, 0.33 mmoles (75 mg)/kg oral
[11] = Chow, 0.66 mmoles (150 mg)/kg oral
[12] = G-70, 0.05 mmoles (114 mg)/kg oral (so in the source)
[13] = G-70, 0.25 mmoles (57 mg)/kg oral
[14] = G-70, 1.00 mmoles (227 mg)/kg oral
[15] = test day 20, no dose, (±) one animal, (+) and (-) two animals

SMILES: O=C(O)C[C@@](O)(C(=O)O)[C@@H](Cl)C(=O)O [(-)-threo-Chlorocitric acid, (-)-threo-chlorocitric acid]
- Food intake, 1st hr [1, 6]: 4.0 ± 0.6 g
- Food intake, 2nd hr [1, 6]: 1.6 ± 1.1 g
- Food intake, 3rd hr [1, 6]: 1.3 ± 0.5 g
- Food intake, Total [1, 6]: 6.8 ± 1.6 g
- Food intake, 1st hr [1, 7]: 3.6 ± 0.6 g
- Food intake, 2nd hr [1, 7]: 2.2 ± 0.4 g
- Food intake, 3rd hr [1, 7]: 1.3 ± 0.4 g
- Food intake, Total [1, 7]: 7.1 ± 0.9 g
- Food intake, 1st hr [1, 8]: 2.2 ± 0.5 g
- Food intake, 2nd hr [1, 8]: 2.2 ± 0.5 g
- Food intake, 3rd hr [1, 8]: 3.8 ± 0.4 g
- Food intake, Total [1, 8]: 8.2 ± 1.1 g
- Food intake, 1st hr [1, 9]: 2.7 ± 0.4 g
- Food intake, 2nd hr [1, 9]: 1.7 ± 0.3 g
- Food intake, 3rd hr [1, 9]: 2.3 ± 0.5 g
- Food intake, Total [1, 9]: 6.7 ± 0.7 g
- Food intake, 1st hr [1, 10]: 4.2 ± 1.4 g
- Food intake, 2nd hr [1, 10]: 1.6 ± 0.4 g
- Food intake, 3rd hr [1, 10]: 2.3 ± 0.7 g
- Food intake, Total [1, 10]: 8.1 ± 2.1 g
- Food intake, 1st hr [1, 11]: 3.6 ± 0.9 g
- Food intake, 2nd hr [1, 11]: 1.4 ± 0.2 g
- Food intake, 3rd hr [1, 11]: 1.9 ± 0.4 g
- Food intake, Total [1, 11]: 6.9 ± 1.2 g
- Daily Food Consumption ([2]; Fa/- lean, 0.66 mmoles/kg oral, treatment day 1): 12.5 ± 1.1 g
- Daily Food Consumption ([2]; Fa/- lean, 0.66 mmoles/kg oral, treatment day 2): 7.0 ± 0.9 g
- Daily Food Consumption ([2]; Fa/- lean, 0.66 mmoles/kg oral, treatment day 3): 7.2 ± 0.7 g
- Daily Food Consumption ([2]; Fa/- lean, 0.66 mmoles/kg oral, treatment day 4): 5.4 ± 1.1 g
- Daily Food Consumption ([2]; Fa/- lean, 0.66 mmoles/kg oral, treatment day 5): 7.3 ± 1.5 g
- Daily Food Consumption ([2]; Fa/- lean, 0.66 mmoles/kg oral, treatment day 6): 7.5 ± 1.3 g
- Daily Food Consumption ([2]; Fa/- lean, 0.66 mmoles/kg, day 0 (pretreatment)): 10.8 ± 1.0 g
- Daily Food Consumption ([2]; fa/fa obese, 0.66 mmoles/kg oral, treatment day 1): 10.7 ± 0.7 g
- Daily Food Consumption ([2]; fa/fa obese, 0.66 mmoles/kg oral, treatment day 2): 5.9 ± 1.5 g
- Daily Food Consumption ([2]; fa/fa obese, 0.66 mmoles/kg oral, treatment day 3): 5.8 ± 0.9 g
- Daily Food Consumption ([2]; fa/fa obese, 0.66 mmoles/kg oral, treatment day 4): 5.5 ± 0.9 g
- Daily Food Consumption ([2]; fa/fa obese, 0.66 mmoles/kg oral, treatment day 5): 4.9 ± 1.0 g
- Daily Food Consumption ([2]; fa/fa obese, 0.66 mmoles/kg oral, treatment day 6): 5.1 ± 1.1 g
- Daily Food Consumption ([2]; fa/fa obese, 0.66 mmoles/kg, day 0 (pretreatment)): 13.1 ± 1.1 g
- Carcass Lipid (% carcass), % of control [3, 12]: 82 % of control
- Carcass Lipid total, % of control [3, 12]: 67 % of control
- Carcass Lipid, % carcass [3, 12]: 4.43 ± 0.56 % carcass
- Carcass Lipid, total [3, 12]: 7.85 ± 1.03 g
- Carcass Weight [3, 12]: 177 ± 2 g
- Carcass Lipid (% carcass), % of control [3, 13]: 84 % of control
- Carcass Lipid total, % of control [3, 13]: 76 % of control
- Carcass Lipid, % carcass [3, 13]: 4.58 ± 0.09 % carcass
- Carcass Lipid, total [3, 13]: 8.98 ± 0.30 g
- Carcass Weight [3, 13]: 196 ± 4 g
- Carcass Lipid (% carcass), % of control [3, 14]: 64 % of control
- Carcass Lipid total, % of control [3, 14]: 50 % of control
- Carcass Lipid, % carcass [3, 14]: 3.48 ± 0.68 % carcass
- Carcass Lipid, total [3, 14]: 5.95 ± 1.28 g
- Carcass Weight [3, 14]: 169 ± 6 g
- Serum, total per ml (Stomach Emptying): 1.9 ± 0.4 dpm × 10^3
- Stomach Contents, total per stomach (Stomach Emptying): 2760 ± 69 dpm × 10^3
- Food Consumption, % of control [4, 15]: 82 % of control
- Food consumption [4, 15]: 607 ± 193 g
- Food consumption ([4]; test days -2, -1, before dosing (control period)): 743 ± 54 g
- metabolic activity on lipid (fatty acid) and cholesterol syntheses [5]: devoid of metabolic activity as an inhibitor of lipid and cholesterol syntheses
